From ChEMBL document CHEMBL1131535, “Conformation-function relationship of vitamin D: conformational analysis predicts potential side-chain structure” (1998)

How the values were obtained:
[1] = test system: U-937; assay: Relative differentiating activity of U 937 cells when the reference value of […] is defined as 1.; assay type: functional, Homo sapiens
[2] = test system: HL-60; assay: Relative differentiating activity of HL-60 cells when the reference value of […] is defined as 1.; assay type: functional, Homo sapiens

Compound	Relative differentiating activity [1]	Relative differentiating activity [2]
C=C1/C(=C\C=C2/CCC[C@]3(C)[C@@H](C(C)OCCCC(O)(CC)CC)CC[C@@H]23)C[C@@H](O)C[C@@H]1O (single isomer, unassigned) [LEXACALCITOL]	20	
C=C1/C(=C\C=C2/CCCC3(C)C2CCC3[C@@H](C)CCCCC(C)(C)O)C[C@@H](O)C[C@@H]1O (stereo not given in full)	200	
C=C1/C(=C\C=C2/CCCC3(C)C2CCC3[C@@H](C)/C=C/CCC(O)(CC)CC)C[C@@H](O)C[C@@H]1O (stereo not given in full)	1000	
C=C1/C(=C\C=C2/CCCC3(C)C2CCC3[C@H](C)/C=C/CCC(C)(C)O)C[C@@H](O)C[C@@H]1O (stereo not given in full)		10
C=C1/C(=C\C=C2/CCCC3(C)C2CCC3[C@@H](C)CCCCC(O)(CC)CC)C[C@@H](O)C[C@@H]1O (stereo not given in full)	200	
C=C1/C(=C\C=C2/CCCC3(C)C2CCC3[C@H](C)CCCC(F)(F)C(C)(C)O)C[C@@H](O)C[C@@H]1O (stereo not given in full)		10
C=C1/C(=C\C=C2/CCCC3(C)C2CCC3[C@H](C)/C=C/CC(O)(CC)CC)C[C@@H](O)C[C@@H]1O (stereo not given in full)		60
C=C1/C(=C\C=C2/CCCC3(C)C([C@H](C)CC#CC(C)(C)O)=CCC23)C[C@@H](O)C[C@@H]1O (stereo not given in full)		10
C=C1/C(=C\C=C2/CCC[C@]3(C)[C@@H]([C@H](C)/C=C/C=C/C(O)(CC)CC)CC[C@@H]23)C[C@@H](O)C[C@@H]1O [SEOCALCITOL]	67	
C=C1/C(=C\C=C2/CCC[C@]3(C)[C@@H]([C@@H](C)OCCCC(O)(CC)CC)CC[C@@H]23)C[C@@H](O)C[C@@H]1O [LEXACALCITOL]	20000	
C=C1/C(=C\C=C2/CCCC3(C)C2CCC3[C@H](C)/C=C/CCCC(C)(C)O)C[C@@H](O)C[C@@H]1O (stereo not given in full)		10
C=C1/C(=C\C=C2/CCCC3(C)C([C@H](C)CC#CC(O)(C(F)(F)F)C(F)(F)F)=CCC23)C[C@@H](O)C[C@@H]1O (stereo not given in full)		80
C=C1/C(=C\C=C2/CCCC3(C)C2CCC3[C@H](C)CCCCC(O)(CC)CC)C[C@@H](O)C[C@@H]1O (stereo not given in full)	5	
C=C1/C(=C\C=C2/CCCC3(C)C2CCC3[C@@H](C)OCCCC(C)(C)O)C[C@@H](O)C[C@@H]1O (stereo not given in full)	1176	
C=C1/C(=C\C=C2/CCCC3(C)C2CCC3[C@H](C)/C=C/CC(O)(C(F)(F)F)C(F)(F)F)C[C@@H](O)C[C@@H]1O (stereo not given in full)		30
